The structures appear in SMILES notation.

Here are results for 79 compounds from paper PMC12040169 (PLOS Biology, 2025).

This data set in a line: in vitro. The note with it: human, hela cells, % viability.

In the case of `COc1ccc(N2CCN(c3nccnc3-c3ccc(C(C)=O)s3)CC2)cc1OC` [CBK036968], the viability (usually a read-out of living cells in per cent, often relative to untreated cells) at 28.5 h, 10 µM was 109%.
Take `Cc1ccccc1OCc1nnc(SCC(=O)c2ccc3c(c2)Cc2ccccc2-3)n1C` [CBK265829]: the viability at 28.5 h, 10 µM is 93.9%.
On to `O=C(c1cccs1)N1C[C@@H]2CCCCN(C3CCOCC3)[C@@H]2C1` [CBK285503], for which the viability at 28.5 h, 10 µM was found to be 107%.
Same read-out and setting: next, `O=c1[nH]c(SCc2n[nH]c(=S)n2-c2ccccc2)nc2sc3c(c12)CCCC3` [CBK300538]: 118%; `CCOc1ccccc1OCC(C)CNC` (stereo not shown) [CBK026242G]: 120%.
On the same count and under the same terms, next, `O=C(CSc1nnc(-c2ccco2)n1-c1ccccc1)NCc1ccc2c(c1)OCO2` [CBK267308]: 85.3%.
On the same count and under the same terms, next, `Cc1cc(NS(=O)(=O)c2ccc(Cl)c([N+](=O)[O-])c2)n(C)n1` [CBK067259]: 96.8%; `CCN(CC)S(=O)(=O)c1ccc2c(c1)CCCN2C(=O)c1ccc(C#N)cc1` [CBK295161]: 85.9%.
Turning to `COc1ccc2c(c1)c(C(=O)N1CCC3(CCNCC3)CC1)c(C)n2C` [CBK306562], the viability at 28.5 h, 10 µM came to 72.9%.
Still for that read-out and setting: next, `Cc1n[nH]c2c1C(c1ccc(C(=O)O)cc1)C1=C(COC1=O)N2` (stereo not shown) [CBK286546]: 94.7%.
Same read-out and setting: in the case of `COc1cccc(CN2CCN(Cc3cc(OC)cc(OC)c3)CC2)c1` [CBK033622] it was 91.2%; in that of `Cc1cc(COc2nccnc2N2CCN(CC(N)=O)CC2)no1` [CBK084192], 91%.
Still for that read-out and setting: next, `COc1ncc(-c2cncc(Nc3ccccc3)n2)c(OC)n1` [CBK065282]: 100%; `COc1ccccc1-c1nccnc1NCCCO` [CBK088971]: 98.8%; `CCN(CC)CC(O)Cn1c(-c2cccc([N+](=O)[O-])c2)nc(=S)c2c1CCCC2` (stereo not shown) [CBK265700]: 97.1%.
In the case of `CCCC/C=C/c1nccnc1NCc1cccs1` [CBK038090], the viability at 28.5 h, 10 µM was 101%.
The same measure, in the same setting: next, `Cn1cc(-c2ncc(OCCc3cccs3)nc2N)cn1` [CBK145167]: 87.8%; `CC1CCC(C(C)C)C(OCC(O)CN2CCN(C)CC2)C1` (stereo not shown) [CBK278213C]: 105%; `Cc1ccc(CS(=O)(=O)N2CCN(CCO)C(C)C2)c(F)c1` (stereo not shown) [CBK304702]: 105%.
In the case of `CC(=O)Nc1cccc(-n2cc(-c3cccc(C(F)(F)F)c3)nn2)c1` [CBK112938], the viability at 28.5 h, 10 µM was 91.2%.
Same read-out and setting: in the case of `COC(=O)C1=C(C(=O)OC)SC(=C2C(=S)C(C)(C)N(C(=O)c3ccc4ccccc4c3)c3cc(C)ccc32)S1` [CBK261622] it was 116%.
Same read-out and setting: next, `CCN(CC)CCC(=O)c1ccc(Cl)cc1` [CBK015906C]: 101%.
As to `CN(C)Cc1c(O)[nH]c(=S)[nH]c1=O` [CBK262474], the viability at 28.5 h, 10 µM (bulk resorufin, single well) turned out to be 92.6%.
With `C1=CC2CC1CC2CN1CCN(Cc2cccnc2)CC1` (stereo not shown) [CBK027284], the viability at 28.5 h, 10 µM stood at 100%.
On the same count and under the same terms, next, `COc1ccccc1CC(=O)Nc1ccc(OCC(=O)O)cc1` [CBK264194]: 99.1%; `COc1ccc(-c2cnc(NCC3CC3)c(C(=O)NCCc3c[nH]c4ccccc34)c2)cc1` [CBK076349]: 96.4%.
As to `O=C1NC(=O)C(CCc2ccccn2)(Cc2ccc3c(c2)OCO3)C(=O)N1CCc1ccccc1` (stereo not shown) [CBK266392], under “bulk resorufin, single well”, the viability at 28.5 h, 10 µM worked out at 98.7%.
Regarding `O=C(CSc1nc(=O)cc(O)[nH]1)c1ccccc1` [CBK026570], the viability at 28.5 h, 10 µM turned out to be 96.7%.
Take `O=C1C2C(c3ccccc3Cl)OC3(C(=O)c4ccccc4C3=O)C2C(=O)N1c1ccc([N+](=O)[O-])cc1` (stereo not shown) [CBK262425]: the viability at 28.5 h, 10 µM was found to be 101%.
Take `CC(=O)Nc1ccc(F)c(NC(=O)NCCN2CCCOC2=O)c1` [CBK307166]: the viability at 28.5 h, 10 µM stood at 92.8%.
On the same count and under the same terms, next, `CCOC(=O)C1C2CCC3(CC(=O)c4cc(Cl)ccc4O3)C21` (stereo not shown) [CBK284858]: 107%; `CC(C)N(Cc1nc(-c2ccc(Cl)cc2)no1)C(=O)COc1ccc(Br)cc1Cl` [CBK267126]: 111%; `COc1cc2c(c(OC)c1OC)CC(=O)NC21CCN(C(=O)NC(C)(C)C)CC1` [CBK047301]: 94.2%.
The same measure, in the same setting: next, `CN(CCCn1c(=S)[nH]c2ccccc2c1=O)C1CCCCC1` [CBK296642]: 103%; `COc1cccc(CN2CCCN(c3nccc(OCC4COc5ccccc5O4)n3)CC2)c1OC` (stereo not shown) [CBK115476T]: 108%; `O=C(O)c1cc(NS(=O)(=O)c2ccc(N3CCCCC3)c([N+](=O)[O-])c2)cc(C(=O)O)c1` [CBK263876]: 101%.
On to `CCNc1cc(-c2ccc(CC(C)C)cc2)ncn1` [CBK090884], for which the viability at 28.5 h, 10 µM was found to be 102%.
On to `Cc1ccc(S(=O)(=O)NCc2ccccc2)c(C)c1NS(C)(=O)=O` [CBK268555], for which the viability at 28.5 h, 10 µM turned out to be 90.2%.
The same measure, in the same setting: next, `COCCn1c(SCc2ccc([N+](=O)[O-])cc2)nnc1-c1ccccc1` [CBK265937]: 89.6%; `Cc1cccc(C2(O)CCN(CC(O)c3ccc(F)cc3)CC2)c1` (stereo not shown) [CBK282504]: 96.6%; `CN(C)CCn1c(=O)[nH]c2ncc(-c3ccoc3)nc21` [CBK064294]: 92.6%.
Still for that read-out and setting: next, `Cn1nc(-c2ccc(S(=O)(=O)Nc3nnc(C(F)(F)F)s3)s2)cc1C(F)(F)F` [CBK062017]: 103%; `Cn1c(-c2c(CCC(=O)O)oc3cc(O)ccc3c2=O)nc2ccccc21` [CBK264831]: 96%.
Regarding `CC(C)c1ccc(S(=O)(=O)NCc2c(F)ccc(Cl)c2F)cc1` [CBK043484], the viability at 28.5 h, 10 µM came to 88.4%.
As for `CC(=O)N1CC[C@H]2NC(=O)CNC(=O)C3(CCCC[C@H]2C1)CCN(C(=O)/C=C/c1ccccc1)CC3` [CBK292092], the viability at 28.5 h, 10 µM was 105%.
For `O=C(NCc1ccco1)c1ccccc1NS(=O)(=O)c1ccc(Br)s1` [CBK077969], the viability at 28.5 h, 10 µM came to 79.9%.
Same read-out and setting: in the case of `CCN(CC(=O)NCc1ccccn1)S(=O)(=O)c1ccccc1` [CBK269546] it was 90.2%.
Still for that read-out and setting: in the case of `CN(C)CCN1CCN(c2cccc(-c3ccc(-c4ccccc4)cc3)n2)CC1` [CBK037610] it was 103%; in that of `CC(C)CCCC(C)NC(=O)COc1cc(C(=O)O)cc(C(=O)O)c1` (stereo not shown) [CBK296646], 86.8%.
Regarding `Cc1ccc(-c2ccc(Nc3ccc(Oc4ccccc4)cc3)nc2)cc1C` [CBK037740], the viability at 28.5 h, 10 µM came out at 92.7%.
Same read-out and setting: in the case of `Cc1c(C(=O)O)sc2nc(SC/C=C/c3ccccc3)nc(N)c12` [CBK300523] it was 83.4%; in that of `COc1ccc2cc(C#N)c(SCC(=O)Nc3ccc(F)cc3)nc2c1` [CBK068765], 85.7%; in that of `O=C(O)CC1(CC(=O)N2CCN(C(c3ccccc3)c3ccccc3)CC2)CCCC1` [CBK086174], 98.7%.
On the same count and under the same terms, next, `Cc1ccc(C(=O)N/C(=C\c2ccccc2F)c2n[nH]c(=S)[nH]2)cc1` [CBK263136]: 87.4%.
Consider `Cc1ccc2nc(-c3ccc4c(c3)CC(C)N4S(C)(=O)=O)cn2c1` (stereo not shown) [CBK285184], for which the viability at 28.5 h, 10 µM worked out at 79.4%.
On the same count and under the same terms, next, `O=C(O)CSc1ccc(Br)c2cccc(C(=O)O)c12` [CBK126919]: 99.2%; `CC(NC(=O)N1CCC2(CC1)NC(=O)Cc1ccccc12)c1cccc2ccccc12` (stereo not shown) [CBK047280]: 84%; `Cn1nc(C(C)(C)C)cc1C(=O)N1CCNC(=O)C1Cc1ccccc1-c1ccc(F)cc1` (stereo not shown) [CBK285830]: 101%.
For the compound `N#Cc1cc2c(=O)n(-c3ccccn3)ccc2[nH]c1=O` [CBK288119], the viability at 28.5 h, 10 µM was 94.5%.
Consider `C=C(C)Cn1c(=O)nc(N)c2c3c(sc21)CCC3` [CBK287986], for which the viability at 28.5 h, 10 µM stood at 88.2%.
Consider `CSCCN1CCC2(CC1)CN(CCO)c1ccccc12` [CBK126771], for which the viability at 28.5 h, 10 µM is 94.6%.
Still for that read-out and setting: in the case of `O=C(Cn1cnc2sc(-c3ccccc3)cc2c1=O)c1ccc2c(c1)OCO2` [CBK297102] it was 87%.
As to `COCCNc1nc(-c2cc(OC)c(OC)c(OC)c2)cnc1N` [CBK063559], the viability at 28.5 h, 10 µM amounted to 112%.
On to `CC(=O)NC(c1ccccn1)C1CCCN(C(=O)C(C)C)C1` (stereo not shown) [CBK285030], for which the viability at 28.5 h, 10 µM turned out to be 111%.
The same measure, in the same setting: next, `COc1ccc(OCC(=O)N2CCN(S(=O)(=O)c3ccccc3[N+](=O)[O-])CC2)cc1` [CBK264213]: 93.5%; `CC(=O)C(C)Oc1ccccc1-n1cccc1` (stereo not shown) [CBK020334]: 95.9%; `CC(C)[C@H]1N=C2C=C(C(C)(C)C)ON2[C@H]2[C@H](O)[C@H](O)C[C@H]21` [CBK303234]: 90.1%.
For the compound `Cn1c(Cc2csc(NC(=O)CNC(=O)Cc3ccccc3)n2)n[nH]c1=S` [CBK296765], the viability at 28.5 h, 10 µM worked out at 102%.
Take `COc1ccc(-c2ccc3n(c2=O)C[C@H]2C[C@@H]3CN(C(=O)c3ccncc3)C2)cc1` [CBK289178]: the viability at 28.5 h, 10 µM amounted to 90.8%.
Take `c1ccc(CCNc2nccnc2-c2ccncc2)nc1` [CBK037378]: the viability at 28.5 h, 10 µM stood at 89.3%.
As for `C[C@H](c1ccccc1)n1c(=O)[nH]c2ncc(-c3cccc(/C=C/C(=O)O)c3)nc21` [CBK064983], the viability at 28.5 h, 10 µM was determined as 83.4%.
Regarding `CC(C)c1c(O)c2ccccc2[nH]c1=O` [CBK159988], the viability at 28.5 h, 10 µM stood at 89.4%.
Still for that read-out and setting: next, `OC1CCN(Cc2c(-c3cccs3)[nH]c3ncccc23)CC1` [CBK283318]: 79.9%; `CCc1noc(C)c1C(=O)NCCN1CCCCC1C` (stereo not shown) [CBK282219]: 98.9%; `Clc1ccccc1CSc1nc[nH]n1` [CBK026950]: 98.5%.
The same measure, in the same setting: in the case of `CC1(CC(=O)N2CCCCCC2)SC(NC2CCCCCC2)=NC1=O` (stereo not shown) [CBK074269] it was 96%; in that of `CN1CCC(N(C)C(=O)NCC2COc3ccccc3O2)C1` (stereo not shown) [CBK155994], 100%; in that of `Cc1cnc(NC(=O)C2CC(=O)N(Cc3cccs3)C2)s1` (stereo not shown) [CBK175531], 90.9%.
As for `Nc1ccccc1Sc1cc(C(F)(F)F)ccn1` [CBK093761], the viability at 28.5 h, 10 µM was 91.4%.
